In one data set the target is T1, mouse HDAC6 (Mus musculus, UniProt Q9Z2V5).
T1 construct: HA; made in house; host or cells: 293T cells, transient transfection; anti-HA immunoprecipitation and HA peptide elution
T1 sequence (Q9Z2V5 1-1149): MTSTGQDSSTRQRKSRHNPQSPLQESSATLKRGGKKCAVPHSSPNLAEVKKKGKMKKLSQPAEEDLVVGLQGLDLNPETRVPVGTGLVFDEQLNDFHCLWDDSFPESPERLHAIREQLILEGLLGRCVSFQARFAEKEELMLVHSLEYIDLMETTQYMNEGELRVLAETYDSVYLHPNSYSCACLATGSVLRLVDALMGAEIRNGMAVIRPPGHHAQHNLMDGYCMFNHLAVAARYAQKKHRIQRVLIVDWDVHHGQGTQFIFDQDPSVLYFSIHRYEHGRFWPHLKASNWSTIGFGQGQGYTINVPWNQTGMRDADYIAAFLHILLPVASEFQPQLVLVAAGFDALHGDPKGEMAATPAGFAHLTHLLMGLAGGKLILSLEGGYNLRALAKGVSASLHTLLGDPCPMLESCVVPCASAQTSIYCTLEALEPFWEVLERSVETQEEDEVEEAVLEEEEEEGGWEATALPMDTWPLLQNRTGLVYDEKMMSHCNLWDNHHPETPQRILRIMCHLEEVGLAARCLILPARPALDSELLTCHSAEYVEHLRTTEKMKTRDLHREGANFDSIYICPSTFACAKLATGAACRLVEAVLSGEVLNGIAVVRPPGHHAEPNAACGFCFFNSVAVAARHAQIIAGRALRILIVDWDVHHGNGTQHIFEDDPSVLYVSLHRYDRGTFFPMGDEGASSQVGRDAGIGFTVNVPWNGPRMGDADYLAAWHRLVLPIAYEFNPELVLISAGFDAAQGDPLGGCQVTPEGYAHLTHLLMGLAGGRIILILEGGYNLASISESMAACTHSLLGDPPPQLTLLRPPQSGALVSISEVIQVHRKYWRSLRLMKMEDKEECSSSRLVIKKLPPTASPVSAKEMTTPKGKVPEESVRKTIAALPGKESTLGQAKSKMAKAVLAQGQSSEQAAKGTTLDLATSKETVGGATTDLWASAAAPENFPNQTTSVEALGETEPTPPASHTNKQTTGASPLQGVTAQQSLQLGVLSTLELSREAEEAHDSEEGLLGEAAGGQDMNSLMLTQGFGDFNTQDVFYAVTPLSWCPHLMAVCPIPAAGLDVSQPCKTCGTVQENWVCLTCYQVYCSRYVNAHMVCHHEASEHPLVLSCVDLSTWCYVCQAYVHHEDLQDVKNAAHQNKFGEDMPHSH
Kind of data set: HDAC inhibitory activity in vitro (coumarin-labeled acetylated histone peptide), HDAC6. Type of data set: biochemical.

Data set [1] relates to human wild-type p21 promoter. Kind of data set: p21 promoter-inducing activity (luciferase) in MFLL-9 cells. As to conditions: Table 1; MFLL-9 cells, 18 hours; concentration corresponding to 50% of the maximum active value for TSA. Type of data set: cell-based. On the procedure:
The HDAC inhibitory activity in vivo was measured using p21 promoter-inducing activity as an index, as shown below. The MFLL-9 cells employed for the experiments stably maintained fusion genes of human wild-type p21 promoter and luciferase (Dr. B. Vogelstaein). Using phenol red-free DMEM medium comprising 10% FBS, cultivation was carried out in a steam-saturated incubator at 37° C. with 5% carbon dioxide. The MFLL-9 cells were plated at a density of 85,000 cells/well on a 96-well microtiter plate, each in 99 μl of the above-mentioned medium. These were then cultivated for six hours. One μl of test compound solution was added to each well, which was then cultured for another 18 hours.
The intensity of luminescence caused by the product of the enzyme reaction for intracellular luciferase expression was measured using Luc Lite (Packard BioScience Company).
HDAC inhibitory activity in an in vivo system was measured using p21 promoter induction as index. The experimental method followed that of Example 11.

In data set [2] the test system is human uterine cancer cells (HeLa). Kind of data set: Cytotoxicity test (XTT), HeLa. Type of data set: cell-based. As to conditions: 48 hours. In general terms: Tetrazolium assays rely on reduction of a dye to a coloured formazan, in cell work by metabolically active cells.
Data set [3] deals with normal human lung cells (TIG-3).
The conditions of data set [4]: amide bond, 12-membered ring, HATU/DIEA, DMF, 25.0 °C.
A further data set has as its target T2, human HDAC4 (Homo sapiens, UniProt P56524).
T2 construct: FLAG; made in house; host or cells: 293T cells, transient transfection; anti-FLAG immunoprecipitation and FLAG peptide elution
In words: HDAC inhibitory activity in vitro (coumarin-labeled acetylated histone peptide), HDAC4. Type of data set: biochemical.

A further data set deals with T3, human HDAC1 (Homo sapiens, UniProt Q13547).
T3 construct: FLAG; made in house; host or cells: 293T cells, transient transfection; anti-FLAG immunoprecipitation and FLAG peptide elution
In words: HDAC inhibitory activity in vitro (coumarin-labeled acetylated histone peptide), HDAC1. It counts as biochemical. As to conditions: Table 1; 37° C., 30 minutes; read-out: IC50 (μM) HDAC1.

In another data set the test system is tubulin deacetylase. Kind of data set: Tubulin and histone acetylation level in HeLa cells by western blotting. It counts as cell-based, human. As to conditions: six hours, anti-acetylated lysine antibody, FIG. 4. On the procedure:
Tubulin and histone acetylation levels were measured by: (a) reacting a test compound with HeLa cells; and (b) confirming the tubulin and histone acetylation level by western blotting using anti-acetylated lysine antibodies. Specifically, human uterine cancer cells (HeLa) were cultured in a DMEM medium supplemented with 10% FBS at 37° C. in the presence of 5% carbon dioxide in a steam-saturated incubator. Two ml of the cells at a density of 15,000 cells/ml were plated onto a 6-well plate and cultured for 18 hours. Test compound solution was added to each culture and successively cultured for another six hours. The cells were washed with PBS, suspended in a lysis buffer (50 mM Tris-HCl (pH7.5), 120 mM NaCl, 5 mM EDTA, 0.5% Nonidet P-40), and then sonicated. The supernatant was collected by centrifugation, mixed with SDS bufer, and left at 100° C. for five minutes. The resulting sample was subjected to electroplioresis on a 15% SDS gel and transferred to a membrane film. This was treated with primary antibody “AKL5C1” (Japan Energy), and secondary antibody “anti-mouse” (LIFE SCIENCE), and then acetylation bands were detected by ECL (amersham pharmacia biotech) (FIG. 4).

Setting [5] is: Table 1, 37° C., 30 minutes, read-out: IC50 (μM) HDAC6.
[6] abbreviates: read-out: IC50 (nM) TIG-3, 48 hours, XTT.

Where two headings read alike, the source gives them in different places. Where a SMILES comes first, the peptide text is derived from it. [ ]: non-standard residue; d: D form. Phe(4-NH2) = Nc1ccc(C[C@H](N)C(=O)O)cc1

One may read the IC50 as the midpoint of a concentration-inhibition curve. By EC50 is commonly meant the midpoint of the concentration-response curve. The low end stands for a more potent agent, the high end for a less potent agent.

T2 sequence (P56524 whole entry): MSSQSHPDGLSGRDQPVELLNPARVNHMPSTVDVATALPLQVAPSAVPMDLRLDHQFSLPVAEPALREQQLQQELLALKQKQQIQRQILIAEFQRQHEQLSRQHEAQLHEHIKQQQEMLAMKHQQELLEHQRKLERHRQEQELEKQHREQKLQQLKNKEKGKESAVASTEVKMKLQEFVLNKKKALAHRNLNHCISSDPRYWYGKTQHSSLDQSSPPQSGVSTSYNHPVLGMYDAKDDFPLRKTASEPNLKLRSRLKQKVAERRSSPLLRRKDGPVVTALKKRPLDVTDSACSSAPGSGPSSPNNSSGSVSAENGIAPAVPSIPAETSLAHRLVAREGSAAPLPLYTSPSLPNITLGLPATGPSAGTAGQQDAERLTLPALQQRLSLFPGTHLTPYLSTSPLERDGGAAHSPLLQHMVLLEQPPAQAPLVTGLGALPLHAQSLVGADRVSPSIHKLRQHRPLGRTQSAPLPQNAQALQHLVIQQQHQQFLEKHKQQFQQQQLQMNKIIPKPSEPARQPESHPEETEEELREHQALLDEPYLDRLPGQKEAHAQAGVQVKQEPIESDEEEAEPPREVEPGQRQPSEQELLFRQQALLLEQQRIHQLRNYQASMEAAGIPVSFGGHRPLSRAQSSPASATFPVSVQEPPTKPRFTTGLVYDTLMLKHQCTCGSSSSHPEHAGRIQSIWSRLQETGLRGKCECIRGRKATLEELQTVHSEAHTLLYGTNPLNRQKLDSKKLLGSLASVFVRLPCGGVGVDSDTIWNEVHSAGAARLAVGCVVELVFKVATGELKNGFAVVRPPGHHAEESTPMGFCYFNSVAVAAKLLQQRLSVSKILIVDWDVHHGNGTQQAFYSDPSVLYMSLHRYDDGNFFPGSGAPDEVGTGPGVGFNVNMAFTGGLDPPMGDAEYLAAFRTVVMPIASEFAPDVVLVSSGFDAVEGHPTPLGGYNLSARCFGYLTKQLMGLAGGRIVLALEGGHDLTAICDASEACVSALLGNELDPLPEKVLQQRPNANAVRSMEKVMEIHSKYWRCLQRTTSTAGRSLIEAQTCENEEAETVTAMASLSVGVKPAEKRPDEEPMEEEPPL
T3 sequence (Q13547 whole entry): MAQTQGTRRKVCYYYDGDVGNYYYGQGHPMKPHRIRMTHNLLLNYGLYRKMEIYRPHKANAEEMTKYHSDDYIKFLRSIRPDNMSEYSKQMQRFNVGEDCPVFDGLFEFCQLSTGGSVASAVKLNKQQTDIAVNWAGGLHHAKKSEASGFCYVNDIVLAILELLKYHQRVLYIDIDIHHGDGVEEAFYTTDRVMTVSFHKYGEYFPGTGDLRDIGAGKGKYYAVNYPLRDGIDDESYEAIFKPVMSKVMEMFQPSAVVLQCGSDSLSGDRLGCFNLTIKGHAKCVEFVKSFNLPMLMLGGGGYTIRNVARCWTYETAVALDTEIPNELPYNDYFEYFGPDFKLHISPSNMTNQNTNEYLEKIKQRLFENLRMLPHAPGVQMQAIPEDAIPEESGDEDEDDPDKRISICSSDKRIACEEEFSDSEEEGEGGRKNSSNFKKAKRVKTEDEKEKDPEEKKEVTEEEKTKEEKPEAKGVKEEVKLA

With `CC[C@H](C)[C@@H]1NC(=O)[C@@H](Cc2ccc(OC)cc2)NC(=O)[C@H](CCCCSCC(=O)C(F)(F)F)NC(=O)[C@H]2CCCN2C1=O` [Mtfk, cyclo(-L-Am6(Tfacet)-D-Tyr(Me)-L-Ile-D-Pro-)], the values for the IC50 (at mouse HDAC6 (setting [5]); in data set [2]; in data set [3] (48 h)) were 0.95 µM, 52.5 nM and 468 nM, respectively. This compound also showed an EC50 in data set [1] of 6640 nM.
Take `CC[C@H](C)[C@@H]1NC(=O)[C@@H](Cc2ccc(OC)cc2)NC(=O)[C@H](CCCCN(C=O)OCc2ccccc2)NC(=O)[C@H]2CCCCN2C1=O` [cyclo(-L-Lys(For, OBzl)-D-Tyr(Me)-L-Ile-D-Pip-)]: in data set [4] (from H-dTyr(Me)-Ile-dPip-Lys(For,OBzl)-OH?, 0.4 mM), the ring closure, isolated yield came out at 25%.
As for `CC[C@H](C)[C@@H]1NC(=O)[C@@H](Cc2ccc(OC)cc2)NC(=O)[C@H](CCCCCC(=O)C(F)(F)C(F)(F)F)NC(=O)[C@H]2CCCN2C1=O` [Pfek, cyclo(-L-Pfe-D-Tyr(Me)-L-Ile-D-Pro-)], the IC50 at human HDAC4 stood at 1.22 µM; at mouse HDAC6, 5.72 µM; in data set [2] it was 616 nM; in data set [3] (setting [6]), 13400 nM. Moreover, in data set [1], the EC50 was above 100000 nM.
With `CC[C@H](C)[C@@H]1NC(=O)[C@@H](Cc2ccc(OC)cc2)NC(=O)[C@H](CCCCCN(C=O)OCc2ccccc2)NC(=O)[C@@H]2CCCN2C1=O` [cyclo(-L-Hly(For, OBzl)-D-Tyr(Me)-L-Ile-L-Pro-)], in data set [4] (from H-dTyr(Me)-Ile-Pro-Hly(For,OBzl)-OH, 0.68 mM), the ring closure, isolated yield came out at 44%.
In the case of `CC[C@H](C)[C@@H]1NC(=O)[C@@H](Cc2ccc(OC)cc2)NC(=O)[C@H](Cc2ccc(N)cc2)NC(=O)[C@H]2CCCN2C1=O` [Aph, cyclo(-L-Aph-D-Tyr(Me)-L-Ile-D-Pro-)] (cyclo(I[dP][Phe(4-NH2)][dY](Me))), the concentration for half-maximal inhibition (IC50) is above 500 µM on human HDAC1; above 500 µM at human HDAC4 (Table 1, 37° C., 30 minutes, read-out: IC50 (μM) HDAC4); above 500 µM at mouse HDAC6 (setting [5]); above 50000 nM in data set [2]; above 50000 nM in data set [3] (48 h). Further, in data set [1], the concentration giving a half-maximal response (EC50) is above 100000 nM.
Consider `CC(/C=C/C(=O)NO)=C\[C@@H](C)C(=O)c1ccc(N(C)C)cc1` [TSA, Trichostatin A, reference compound], for which the EC50 in data set [1] stood at 770 nM. Moreover, the IC50 in data set [2] turned out to be 12.3 nM; in data set [3] (setting [6]), 151 nM.
`CC[C@H](C)[C@@H]1NC(=O)[C@@H](Cc2ccc(OC)cc2)NC(=O)[C@H](CCCCCN(C=O)OCc2ccccc2)NC(=O)[C@@H]2CCCCN2C1=O` [cyclo(-L-Hly(For, OBzl)-D-Tyr(Me)-L-Ile-L-Pip-)] returned a ring closure, isolated yield in data set [4] (from H-dTyr(Me)-Ile-Pip-Hly(For,OBzl)-OH?, 0.39 mM) of 28%.
`CC[C@H](C)[C@@H]1NC(=O)[C@@H](Cc2ccc(OC)cc2)NC(=O)[C@H](CCCCCN(C=O)OCc2ccccc2)NC(=O)[C@H]2CCCCN2C1=O` [cyclo(-L-Hly(For, OBzl)-D-Tyr(Me)-L-Ile-D-Pip-)] returned a ring closure, isolated yield in data set [4] (from H-dTyr(Me)-Ile-dPip-Hly(For,OBzl)-OH?, 0.39 mM) of 28%.
As to `CC[C@H](C)[C@@H]1NC(=O)[C@@H](Cc2ccc(OC)cc2)NC(=O)[C@H](CCCCCN(C=O)OCc2ccccc2)NC(=O)[C@H]2CCCN2C1=O` [cyclo(-L-Hly(For, OBzl)-D-Tyr(Me)-L-Ile-D-Pro-)], the ring closure, isolated yield in data set [4] (from H-dTyr(Me)-Ile-dPro-Hly(For,OBzl)-OH, 0.96 mM) came to 66%.
For the compound `CC[C@H](C)[C@@H]1NC(=O)[C@@H](Cc2ccc(OC)cc2)NC(=O)[C@H](CCCCCC(=O)C(F)(F)F)NC(=O)[C@H]2CCCN2C1=O` [Tfk, cyclo(-L-Tfm-D-Tyr(Me)-L-Ile-D-Pro-)], the 50% inhibitory concentration (IC50) stood at 1.44 µM on mouse HDAC6 (setting [5]), 8.8 nM in data set [2] and 87.1 nM in data set [3] (48 h). Also, the concentration giving a half-maximal response (EC50) in data set [1] amounted to 3090 nM. Also, the “tubulin acetylation (tubulin deacetylase inhibition in the cells)” value with tubulin deacetylase is “induced high level of tubulin acetylation”.

These data come from patent US7662778B2, “Histone deacetylase inhibitor and process for producing the same” (Riken, priority 2003, dated 2010).
